Measured values from ChEMBL document CHEMBL1131309, “Isoindol-1-one analogues of 4-(2'-methoxyphenyl)-1-[2'-[N-(2"-pyridyl)-p-iodobenzamido]ethyl]pipera zine (p-MPPI) as 5-HT1A receptor ligands” (J Med Chem, 1998).

Assays:
Rattus norvegicus [1] = assay: Biodistribution was measured in rat striatum by injecting the radiolabeled compound intravenously and the value measured after 60 min; assay type: ADME, organism-based; details: in vivo, iv, 1 h
Rattus norvegicus [2] = assay: Biodistribution was measured in rat lung by injecting the radiolabeled compound intravenously and the value measured after 60 min; assay type: ADME, organism-based; details: in vivo, iv, 1 h
Rattus norvegicus [3] = assay: Biodistribution was measured in rat liver by injecting the radiolabeled compound intravenously and the value measured after 2 min; assay type: ADME, organism-based; details: in vivo, iv
Rattus norvegicus [4] = assay: Biodistribution was measured in rat thyroid by injecting the radiolabeled compound intravenously and the value measured after 2 min; assay type: ADME, organism-based, Thyroid gland; details: in vivo, iv
Rattus norvegicus [5] = assay: Biodistribution was measured in rat muscle by injecting the radiolabeled compound intravenously and the value measured after 30 min; assay type: ADME, organism-based, Muscle tissue; details: in vivo, iv, 0.5 h
Rattus norvegicus [6] = assay: Biodistribution was measured in rat cortex by injecting the radiolabeled compound intravenously and the value measured after 60 min; assay type: ADME, organism-based; details: in vivo, iv, 1 h
[7] = target: T1, 5-hydroxytryptamine receptor 1A (Rattus norvegicus, UniProt P19327)
T1 sequence (P19327 whole entry): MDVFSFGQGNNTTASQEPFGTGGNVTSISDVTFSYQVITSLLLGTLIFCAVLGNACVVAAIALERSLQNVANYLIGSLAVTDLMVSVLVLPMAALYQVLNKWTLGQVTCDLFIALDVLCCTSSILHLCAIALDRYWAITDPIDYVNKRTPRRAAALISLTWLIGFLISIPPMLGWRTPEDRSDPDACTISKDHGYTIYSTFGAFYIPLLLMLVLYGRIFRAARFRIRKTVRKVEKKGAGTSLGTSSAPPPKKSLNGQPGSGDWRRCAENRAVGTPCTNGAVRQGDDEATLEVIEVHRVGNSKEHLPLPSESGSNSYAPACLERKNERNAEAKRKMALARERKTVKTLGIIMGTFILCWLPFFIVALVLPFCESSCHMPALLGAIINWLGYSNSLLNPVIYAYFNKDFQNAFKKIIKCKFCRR
Description: (§1) In vitro binding affinity for 5-hydroxytryptamine 1A receptor in rat hippocampal membranes by [125I]-labeled agonist displacement.

Rattus norvegicus [8] = assay: Biodistribution was measured in rat brain by injecting the radiolabeled compound intravenously and the value measured after 2 min; assay type: ADME, organism-based; details: in vivo, iv
Rattus norvegicus [9] = assay: Biodistribution was measured in rat muscle by injecting the radiolabeled compound intravenously and the value measured after 2 min; assay type: ADME, organism-based, Muscle tissue; details: in vivo, iv
Rattus norvegicus [10] = assay: Biodistribution was measured in rat kidney by injecting the radiolabeled compound intravenously and the value measured after 30 min; assay type: ADME, organism-based; details: in vivo, iv, 0.5 h
Rattus norvegicus [11] = assay: Biodistribution was measured in rat skin by injecting the radiolabeled compound intravenously and the value measured after 60 min; assay type: ADME, organism-based, Zone of skin; details: in vivo, iv, 1 h
Rattus norvegicus [12] = assay: Biodistribution was measured in rat thyroid by injecting the radiolabeled compound intravenously and the value measured after 60 min; assay type: ADME, organism-based, Thyroid gland; details: in vivo, iv, 1 h
[13] = target: T1, 5-hydroxytryptamine receptor 1A; remark: listed apart in the source
Description: as §1

Rattus norvegicus [14] = assay: Biodistribution was measured in blood of rat by injecting the radiolabeled compound intravenously and the value measured after 30 min; assay type: ADME, organism-based; details: in vivo, iv, 0.5 h
[15] = Biodistribution was measured in hippocampus region(HP/CB) by injecting the radiolabeled compound intravenously and the value measured after 60 min; assay type: ADME, organism-based; details: in vivo, iv, 1 h
Rattus norvegicus [16] = assay: Biodistribution was measured in rat skin by injecting the radiolabeled compound intravenously and the value measured after 30 min; assay type: ADME, organism-based, Zone of skin; details: in vivo, iv, 0.5 h
Rattus norvegicus [17] = assay: Biodistribution was measured in rat spleen by injecting the radiolabeled compound intravenously and the value measured after 2 min; assay type: ADME, organism-based; details: in vivo, iv
Rattus norvegicus [18] = assay: Biodistribution was measured in rat kidney by injecting the radiolabeled compound intravenously and the value measured after 60 min; assay type: ADME, organism-based; details: in vivo, iv, 1 h
Rattus norvegicus [19] = assay: Biodistribution was measured in rat cortex by injecting the radiolabeled compound intravenously and the value measured after 2 min; assay type: ADME, organism-based; details: in vivo, iv
Rattus norvegicus [20] = assay: Biodistribution was measured in rat cerebellum by injecting the radiolabeled compound intravenously and the value measured after 60 min; assay type: ADME, organism-based; details: in vivo, iv, 1 h
Rattus norvegicus [21] = assay: Biodistribution was measured in rat heart by injecting the radiolabeled compound intravenously and the value measured after 30 min; assay type: ADME, organism-based; details: in vivo, iv, 0.5 h
Rattus norvegicus [22] = assay: Biodistribution was measured in rat cerebellum by injecting the radiolabeled compound intravenously and the value measured after 2 min; assay type: ADME, organism-based; details: in vivo, iv
[23] = Biodistribution was measured in hippocampus region(HP/CB) by injecting the radiolabeled compound intravenously and the value measured after 2 min; assay type: ADME, organism-based; details: in vivo, iv
Rattus norvegicus [24] = assay: Biodistribution was measured in rat heart by injecting the radiolabeled compound intravenously and the value measured after 60 min; assay type: ADME, organism-based; details: in vivo, iv, 1 h
Rattus norvegicus [25] = assay: Biodistribution was measured in rat lung by injecting the radiolabeled compound intravenously and the value measured after 2 min; assay type: ADME, organism-based; details: in vivo, iv
Rattus norvegicus [26] = assay: Biodistribution was measured in rat hippocampus by injecting the radiolabeled compound intravenously and the value measured after 2 min; assay type: ADME, organism-based; details: in vivo, iv
Rattus norvegicus [27] = assay: Biodistribution was measured in rat spleen by injecting the radiolabeled compound intravenously and the value measured after 60 min; assay type: ADME, organism-based; details: in vivo, iv, 1 h
Rattus norvegicus [28] = assay: Biodistribution was measured in rat hippocampus by injecting the radiolabeled compound intravenously and the value measured after 30 min; assay type: ADME, organism-based; details: in vivo, iv, 0.5 h
Rattus norvegicus [29] = assay: Biodistribution was measured in rat thyroid by injecting the radiolabeled compound intravenously and the value measured after 30 min; assay type: ADME, organism-based, Thyroid gland; details: in vivo, iv, 0.5 h
Rattus norvegicus [30] = assay: Biodistribution was measured in rat muscle by injecting the radiolabeled compound intravenously and the value measured after 60 min; assay type: ADME, organism-based, Muscle tissue; details: in vivo, iv, 1 h
Rattus norvegicus [31] = assay: Biodistribution was measured in rat kidney by injecting the radiolabeled compound intravenously and the value measured after 2 min; assay type: ADME, organism-based; details: in vivo, iv
Rattus norvegicus [32] = assay: Biodistribution was measured in rat liver by injecting the radiolabeled compound intravenously and the value measured after 30 min; assay type: ADME, organism-based; details: in vivo, iv, 0.5 h
Rattus norvegicus [33] = assay: Biodistribution was measured in rat liver by injecting the radiolabeled compound intravenously and the value measured after 60 min; assay type: ADME, organism-based; details: in vivo, iv, 1 h
Rattus norvegicus [34] = assay: Biodistribution was measured in rat brain by injecting the radiolabeled compound intravenously and the value measured after 30 min; assay type: ADME, organism-based; details: in vivo, iv, 0.5 h
Rattus norvegicus [35] = assay: Biodistribution was measured in rat hippocampus by injecting the radiolabeled compound intravenously and the value measured after 60 min; assay type: ADME, organism-based; details: in vivo, iv, 1 h
Rattus norvegicus [36] = assay: Biodistribution was measured in rat cortex by injecting the radiolabeled compound intravenously and the value measured after 30 min; assay type: ADME, organism-based; details: in vivo, iv, 0.5 h
Rattus norvegicus [37] = assay: Biodistribution was measured in rat striatum by injecting the radiolabeled compound intravenously and the value measured after 30 min; assay type: ADME, organism-based; details: in vivo, iv, 0.5 h
Rattus norvegicus [38] = assay: Biodistribution was measured in rat cerebellum by injecting the radiolabeled compound intravenously and the value measured after 30 min; assay type: ADME, organism-based; details: in vivo, iv, 0.5 h
Rattus norvegicus [39] = assay: Biodistribution was measured in blood of rat by injecting the radiolabeled compound intravenously and the value measured after 2 min; assay type: ADME, organism-based; details: in vivo, iv
Rattus norvegicus [40] = assay: Biodistribution was measured in rat brain by injecting the radiolabeled compound intravenously and the value measured after 60 min; assay type: ADME, organism-based; details: in vivo, iv, 1 h
Rattus norvegicus [41] = assay: Biodistribution was measured in blood of rat by injecting the radiolabeled compound intravenously and the value measured after 60 min; assay type: ADME, organism-based; details: in vivo, iv, 1 h
[42] = Biodistribution was measured in hippocampus region(HP/CB) by injecting the radiolabeled compound intravenously and the value measured after 30 min; assay type: ADME, organism-based; details: in vivo, iv, 0.5 h
Rattus norvegicus [43] = assay: Biodistribution was measured in rat heart by injecting the radiolabeled compound intravenously and the value measured after 2 min; assay type: ADME, organism-based; details: in vivo, iv
Rattus norvegicus [44] = assay: Biodistribution was measured in rat striatum by injecting the radiolabeled compound intravenously and the value measured after 2 min; assay type: ADME, organism-based; details: in vivo, iv
Rattus norvegicus [45] = assay: Biodistribution was measured in rat spleen by injecting the radiolabeled compound intravenously and the value measured after 30 min; assay type: ADME, organism-based; details: in vivo, iv, 0.5 h
Rattus norvegicus [46] = assay: Biodistribution was measured in rat lung by injecting the radiolabeled compound intravenously and the value measured after 30 min; assay type: ADME, organism-based; details: in vivo, iv, 0.5 h

SMILES: COc1ccccc1N1CCN(CCN2C(=O)c3cc(I)ccc3C2c2ccccc2)CC1 (centres undefined)
- Biodistribution (Rattus norvegicus [1]): 0.035 % dose organ-1
- Biodistribution (Rattus norvegicus [2]): 0.56 % dose organ-1
- Biodistribution (Rattus norvegicus [3]): 21.36 % dose organ-1
- Biodistribution (Rattus norvegicus [4]): 0.073 % dose organ-1
- Biodistribution (Rattus norvegicus [5]): 14.35 % dose organ-1
- Biodistribution (Rattus norvegicus [6]): 0.028 % dose organ-1
- Ki [7]: 0.069 nM
- Biodistribution (Rattus norvegicus [8]): 0.26 % dose organ-1
- Biodistribution (Rattus norvegicus [9]): 9.45 % dose organ-1
- Biodistribution (Rattus norvegicus [10]): 2.32 % dose organ-1
- Biodistribution (Rattus norvegicus [11]): 4.96 % dose organ-1
- Biodistribution (Rattus norvegicus [12]): 0.06 % dose organ-1
- Ki [13]: 0.069 nM
- Biodistribution (Rattus norvegicus [14]): 1.92 % dose organ-1
- Biodistribution [15]: 1.06 % dose organ-1
- Biodistribution (Rattus norvegicus [16]): 5.8 % dose organ-1
- Biodistribution (Rattus norvegicus [17]): 0.26 % dose organ-1
- Biodistribution (Rattus norvegicus [18]): 1.42 % dose organ-1
- Biodistribution (Rattus norvegicus [19]): 0.242 % dose organ-1
- Biodistribution (Rattus norvegicus [20]): 0.035 % dose organ-1
- Biodistribution (Rattus norvegicus [21]): 0.3 % dose organ-1
- Biodistribution (Rattus norvegicus [22]): 0.202 % dose organ-1
- Biodistribution [23]: 0.87 % dose organ-1
- Biodistribution (Rattus norvegicus [24]): 0.15 % dose organ-1
- Biodistribution (Rattus norvegicus [25]): 2.05 % dose organ-1
- Biodistribution (Rattus norvegicus [26]): 0.177 % dose organ-1
- Biodistribution (Rattus norvegicus [27]): 0.15 % dose organ-1
- Biodistribution (Rattus norvegicus [28]): 0.09 % dose organ-1
- Biodistribution (Rattus norvegicus [29]): 0.05 % dose organ-1
- Biodistribution (Rattus norvegicus [30]): 8.83 % dose organ-1
- Biodistribution (Rattus norvegicus [31]): 4.01 % dose organ-1
- Biodistribution (Rattus norvegicus [32]): 18.65 % dose organ-1
- Biodistribution (Rattus norvegicus [33]): 10.76 % dose organ-1
- Biodistribution (Rattus norvegicus [34]): 0.11 % dose organ-1
- Biodistribution (Rattus norvegicus [35]): 0.037 % dose organ-1
- Biodistribution (Rattus norvegicus [36]): 0.081 % dose organ-1
- Biodistribution (Rattus norvegicus [37]): 0.093 % dose organ-1
- Biodistribution (Rattus norvegicus [38]): 0.08 % dose organ-1
- Biodistribution (Rattus norvegicus [39]): 2.84 % dose organ-1
- Biodistribution (Rattus norvegicus [40]): 0.04 % dose organ-1
- Biodistribution (Rattus norvegicus [41]): 1.22 % dose organ-1
- Biodistribution [42]: 1.12 % dose organ-1
- Biodistribution (Rattus norvegicus [43]): 1.42 % dose organ-1
- Biodistribution (Rattus norvegicus [44]): 0.204 % dose organ-1
- Biodistribution (Rattus norvegicus [45]): 0.22 % dose organ-1
- Biodistribution (Rattus norvegicus [46]): 0.7 % dose organ-1

SMILES: COc1ccc([N+](=O)[O-])cc1N1CCN(CCN2C(=O)c3cc(I)ccc3C2c2ccccc2)CC1 (centres undefined)
- Ki [7]: 51.7 nM

SMILES: COc1ccccc1N1CCN(CCN2C(=O)c3cc([N+](=O)[O-])ccc3C2c2ccccc2)CC1 (centres undefined)
- Ki [7]: 0.045 nM

SMILES: COc1ccccc1N1CCN(CCN2C(=O)c3cc([N+](=O)[O-])ccc3C2(O)c2ccccc2)CC1 (centres undefined)
- Ki [7]: 0.34 nM
